# Test results from patent publication US9416141B2 (University of Washington through its Center for …, priority 2012, dated 2016).
# Structures can show the parent of a compound that is named as a salt.
# Tested on: hair cells
# Experiment: Hair cell toxicity assay in zebrafish (neomycin-induced hair cell death, DASPEI staining of neuromasts)
# Type: in vivo
# Conditions: Danio rerio; for Emax at 25 µM: maximum observed @ 25 μM test compound; for EC50: zebrafish larvae 5-7 dpf, 1 h pre-treatment, then 200 micromolar neomycin + test compound 30 min, read-out: HC50 (concentration that would produce 50% hair cell survival); for Emax at 2.8 µM: maximum observed @ 2.8 μM test compound; for Emax at 8.3 µM: maximum observed @ 8.3 μM test compound
# Outline: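 Zebrafish larvae 5-7 dpf pre-treated 1 h with compound (0.010-25 μM), then 30 min with 200 μM neomycin plus compound. DASPEI stained 10 neuromasts per fish, scored 0-2 (total 0-20), normalised to vehicle controls as % hair cell survival. HC50 linearly interpolated if survival reached ≥50%; HCmax is maximum survival.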
# [1] = 200 micromolar neomycin, read-out: Max HC Protection (HCmax, % hair cell survival)
SMILES,Emax at 25 µM [1] [%],EC50 [nM],further results
"C[N+]1(CC2CC2)CCc2c(sc(NC(=O)Nc3ccc(Cl)cc3)c2C(N)=O)C1 (centres unmarked) [Example 140, 3-Carbamoyl-2-[3-(4-chlorophenyl)ureido]-6-(cyclopropylmethyl)-6-methyl-4,5,6,7-tetrahydrothieno[2,3-c]pyridin-6-ium iodide]",92,< 1000,–
"CCN1CCc2c(sc(NC(=O)Nc3ccc(Cl)cc3)c2C#N)C1 [Example 87, 1-(4-Chlorophenyl)-3-(3-cyano-6-ethyl-4,5,6,7-tetrahydrothieno[2,3-c]pyridin-2-yl)urea]",11,–,–
"CC[N+]1(C)CCCc2c(sc(NC(=O)Nc3ccc(Cl)cc3)c2C(N)=O)C1 (centres unmarked) [Example 173, 3-Carbamoyl-2-[3-(4-chlorophenyl)ureido]-7-ethyl-7-methyl-5,6,7,8-tetrahydro-4H-thieno[2,3-c]azepin-7-ium iodide]",102,1000 to 10000,–
"CCN1CCc2c(sc(NC(=O)Nc3ccc(C(=O)c4ccccc4)cc3)c2C(N)=O)C1 [Example 88, 2-[3-(4-Benzoylphenyl)ureido]-6-ethyl-4,5,6,7-tetrahydrothieno[2,3-c]pyridine-3-carboxamide]",88,1000 to 10000,–
"C[N+]1(CCCC(=O)O)CCc2c(sc(NC(=O)Nc3ccc(Cl)cc3)c2C(N)=O)C1 (centres unmarked) [Example 149, 3-Carbamoyl-6-(3-carboxypropyl)-2-[3-(4-chlorophenyl)ureido]-6-methyl-4,5,6,7-tetrahydrothieno[2,3-c]pyridin-6-ium trifluoroacetate]",24,–,–
"CC(C)OC(=O)CC[N+]1(C)CCc2c(sc(NC(=O)Nc3ccc(Cl)cc3)c2C(N)=O)C1 (centres unmarked) [Example 159, 3-Carbamoyl-2-[3-(4-chlorophenyl)ureido]-6-(3-isopropoxy-3-oxopropyl)-6-methyl-4,5,6,7-tetrahydrothieno[2,3-c]pyridin-6-ium iodide]",–,< 1000,Emax at 2.8 µM [1]: 84%
"CC(C(=O)OC(C)(C)C)N1CCc2c(sc(NC(=O)Nc3ccc(Cl)cc3)c2C(N)=O)C1 (racemic) [Example 59, (+/−)-tert-Butyl 2-{3-carbamoyl-2-[3-(4-chlorophenyl)ureido]-4,5-dihydrothieno[2,3-c]pyridin-6(7H)-yl}propanoate]",–,–,Emax at 8.3 µM [1]: 40%
"CCOC(=O)CCCN1CCc2c(sc(NC(=O)Nc3ccc(Cl)cc3)c2C(N)=O)C1 [Example 21, Ethyl 4-{3-carbamoyl-2-[3-(4-chlorophenyl)ureido]-4,5-dihydrothieno[2,3-c]pyridin-6(7H)-yl}butanoate hydrochloride]",–,1000 to 10000,Emax at 2.8 µM [1]: 57%
"CCN1CCc2c(sc(NC(=O)Nc3ccc(Br)cc3)c2C(N)=O)C1 [Example 222, 2-{[(4-bromophenyl)carbamoyl]amino}-6-ethyl-4H,5H,6H,7H-thieno[2,3-c]pyridine-3-carboxamide]",90,1000 to 10000,–
"NC(=O)c1c(NC(=O)Nc2ccc(Cl)cc2)sc2c1CC1CCC2N1 (single isomer, unassigned; (+)) [Example 130, (+)-2-[3-(4-Chlorophenyl)ureido]-5,6,7,8-tetrahydro-4H-5,8-epiminocyclohepta[b]thiophene-3-carboxamide hydrochloride]",–,–,Emax at 2.8 µM [1]: 40%
"CC(C)(C)OC(=O)CCN1CCc2c(sc(NC(=O)Nc3ccc(Cl)cc3)c2C(N)=O)C1 [Example 51, tert-Butyl 3-{3-Carbamoyl-2-[3-(4-chlorophenyl)ureido]-4,5-dihydrothieno[2,3-c]pyridin-6(7H)-yl}propanoate]",–,1000 to 10000,Emax at 8.3 µM [1]: 55%
"CC(C)CN1CCc2c(sc(NC(=O)Nc3ccc(Cl)c4ccccc34)c2C(N)=O)C1 [Example 39, 2-[3-(4-Chloronaphthalen-1-yl)ureido]-6-isobutyl-4,5,6,7-tetrahydrothieno[2,3-c]pyridine-3-carboxamide hydrochloride]",56,> 10000,–
"CCN1CCc2c(ccc(NC(=O)Nc3ccc(Cl)cc3)c2C(N)=O)C1 [Example 112, 6-[3-(4-chlorophenyl)ureido]-2-ethyl-1,2,3,4-tetrahydroisoquinoline-5-carboxamide hydrochloride]",49,–,–
"CCN1CCc2c(sc(NC(=O)Nc3ccc(Cl)cc3)c2C(=O)NCc2cccnc2)C1 [Example 98, 2-[3-(4-Chlorophenyl)ureido]-6-ethyl-N-(pyridin-3-ylmethyl)-4,5,6,7-tetrahydrothieno[2,3-c]pyridine-3-carboxamide dihydrochloride]",52,> 10000,–
"CCN1CCCc2c(sc(NC(=O)Nc3ccc(Cl)cc3)c2C(N)=O)C1 [Example 114, 2-[3-(4-chlorophenyl)ureido)-7-ethyl-5,6,7,8-tetrahydro-4H-thieno[2,3-c]azepine-3-carboxamide hydrochloride]",97,1000 to 10000,–
"NC(=O)c1c(NC(=O)Nc2ccc(Cl)cc2)sc2c1CCN(CCCNC(=O)CCc1c[nH]c3ccccc13)C2 [Example 209, 2-{[(4-chlorophenyl)carbamoyl]amino}-6-{3-[3-(1H-indol-3-yl)propanamido]propyl}-4H,5H,6H,7H-thieno[2,3-c]pyridine-3-carboxamide]",–,< 1000,Emax at 2.8 µM [1]: 98%
"COC(=O)C(C)(C)CN1C2CCC1c1sc(NC(=O)Nc3ccc(Cl)cc3)c(C(N)=O)c1C2 (racemic) [Example 134, (+/−)-Methyl 3-{3-carbamoyl-2-[3-(4-chlorophenyl)ureido]-5,6,7,8-tetrahydro-4H-5,8-epiminocyclohepta[b]thiophen-9-yl}-2,2-dimethylpropanoate hydrochloride]",–,–,"Emax at 0.9 µM (maximum observed @ 0.9 μM test compound, 200 micromolar neomycin, read-out: Max HC Protection (HCmax, % hair cell survival)): 11%"
"CCN1CCc2c(sc(NC(=O)Nc3ccc(Cl)c(C)c3)c2C(N)=O)C1 [Example 64, 2-[3-(4-chloro-3-methylphenyl)ureido]-6-ethyl-4,5,6,7-tetrahydrothieno[2,3-c]pyridine-3-carboxamide hydrochloride]",77,1000 to 10000,–
"NC(=O)c1c(NC(=O)Nc2ccc(Cl)cc2)sc2c1CCN1CCCCC21 (racemic) [Example 118, (+/−)-2-[3-(4-Chlorophenyl)ureido]-5,7,8,9,10,10a-hexahydro-4H-thieno[2,3-a]quinolizine-3-carboxamide hydrochloride]",99,1000 to 10000,–
"CC[N+]1(C)CCc2c(sc(NC(=O)Nc3ccc(Br)cc3)c2C(N)=O)C1 (centres unmarked) [Example 220, 2-{[(4-bromophenyl)carbamoyl]amino}-3-carbamoyl-6-ethyl-6-methyl-4H,5H,6H,7H-thieno[2,3-c]pyridin-6-ium]",98,< 1000,–
"NC(=O)c1c(NC(=O)Nc2ccc(Cl)cc2)sc2c1CCN(CC1CCCC1)C2 [Example 17, 2-[3-(4-Chlorophenyl)ureido]-6-(cyclopentylmethyl)-4,5,6,7-tetrahydrothieno[2,3-c]pyridine-3-carboxamide hydrochloride]",–,1000 to 10000,Emax at 8.3 µM [1]: 65%
"CN1CCC(N2CCc3c(sc(NC(=O)Nc4ccc(Cl)cc4)c3C(N)=O)C2)CC1 [Example 8, 2-[3-(4-Chlorophenyl)ureido]-6-(1-methylpiperidin-4-yl)-4,5,6,7-tetrahydrothieno[2,3-c]pyridine-3-carboxamide dihydrochloride]",84,> 10000,–
